Measured values published in PubChem BioAssay (NCI).
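Step 1: Grow cells in 96-well plates. Step 2: Expose to compound for 48 hours at 5 concentrations. Step 3: Interpolate endpoints linearly; if unreached, use highest concentration. The concentration for 50% growth inhibition is given as GI50. TGI is the concentration that stops growth completely.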

Experiments:
Experiment in all cases: growth of human tumour cells (NCI), 48 h
UO-31 renal = system: UO-31 renal
KM12 colon = system: KM12 colon
UACC-62 melanoma = system: UACC-62 melanoma
RPMI-8226 leukemia = system: RPMI-8226 leukemia
CCRF-CEM leukemia = system: CCRF-CEM leukemia
TK-10 renal = system: TK-10 renal
COLO 205 colon = system: COLO 205 colon
SK-OV-3 ovarian = system: SK-OV-3 ovarian
NCI-H522 lung = system: NCI-H522 lung
K-562 leukemia = system: K-562 leukemia

Compound | TGI (UO-31 renal) | TGI (KM12 colon) | TGI (UACC-62 melanoma) | TGI (RPMI-8226 leukemia) | TGI (CCRF-CEM leukemia) [µM] | TGI (TK-10 renal) | TGI (COLO 205 colon) | TGI (SK-OV-3 ovarian) | TGI (NCI-H522 lung) | TGI (K-562 leukemia) | GI50 (SK-OV-3 ovarian) | GI50 (UO-31 renal) | GI50 (KM12 colon) | GI50 (NCI-H522 lung) | GI50 (UACC-62 melanoma) | GI50 (RPMI-8226 leukemia) | GI50 (CCRF-CEM leukemia) [µM] | GI50 (TK-10 renal) | GI50 (COLO 205 colon) | GI50 (K-562 leukemia)
CCCCCC/C(CC(=O)CCC(=O)NCCc1ccccc1)=N\NC(=O)c1ccc2ccccc2c1O | > 100 µM | > 100 µM | 50.8 µM | > 100 µM | 47.4 | > 100 µM | > 100 µM |  |  |  |  |  |  |  |  |  |  |  |  | 
N#CC(CC(=O)O)=C(c1ccccc1)c1ccccc1 | > 100 µM | > 100 µM | > 100 µM | > 100 µM |  | > 100 µM | > 100 µM | > 100 µM | > 100 µM | > 100 µM |  |  |  |  |  |  |  |  |  | 
C[C@H](CCCOS(C)(=O)=O)[C@H]1CC[C@H]2[C@@H]3CC[C@@H]4C[C@H](OS(C)(=O)=O)CC[C@]4(C)[C@H]3CC[C@]12C | > 2500 µM | > 2500 µM |  | 1260 µM | > 2500 |  | > 2500 µM |  | 961 µM |  | > 2500 µM | > 2500 µM | 1230 µM | 398 µM | 710 µM | 69.9 µM | > 2500 | 607 µM | 1130 µM | 
NC(N)=NC(N)=NCc1ccco1 | > 1250 µM | > 1250 µM | > 1250 µM |  |  | > 1250 µM | > 1250 µM | > 1250 µM | > 1250 µM | > 1250 µM | > 1250 µM | > 1250 µM | > 1250 µM | > 1250 µM | 748 µM | 818 µM |  | > 1250 µM | > 1250 µM | 264 µM
CC1CCC2[C@@H](C)COC3O[C@]4(C)CCC1C32OO4 (some centres undefined) | > 100 µM | > 100 µM | > 100 µM |  | > 100 | > 100 µM | > 100 µM | > 100 µM | > 100 µM | > 100 µM |  |  |  |  |  |  |  |  |  | 
COn1cc(C(=O)N=C(SC)SC)c2ccccc21 | > 100 µM | 52.7 µM | 55.8 µM | > 100 µM | 91 |  | > 100 µM | > 100 µM | 42 µM | 17.5 µM | 50.6 µM | 40.9 µM | 20.3 µM | 13.1 µM | 20.2 µM | 17.9 µM | 22.3 |  | 30.2 µM | 2.29 µM
Nc1nc(Cl)c2ncn(Cc3ccc(-c4ccc(CCl)cc4)cc3)c2n1 | > 100 µM | > 100 µM | 23 µM | 5.58 µM |  | 19.8 µM | 74.4 µM | > 100 µM | > 100 µM | > 100 µM | 37.1 µM | 17.7 µM | 27.7 µM | > 100 µM | 9.26 µM | 1.43 µM |  | 6.44 µM | 7.17 µM | 13.9 µM
C/C(=N\NS(=O)(=O)c1ccccc1)c1ccc[n+]([O-])n1 | > 100 µM | > 100 µM | > 100 µM | > 100 µM | 64.6 |  |  | > 100 µM | 79 µM | > 100 µM |  |  |  |  |  |  |  |  |  | 
COc1ccc(OC)c(/C=C/C(=O)c2ccc3cc(OC)ccc3c2)c1 | > 15.2 µM | 11.2 µM | > 12.2 µM | > 37.8 µM |  | > 50 µM | > 14.8 µM | 2.37 µM | > 14 µM | > 50 µM | 1.04 µM |  | 3.02 µM |  | 5.52 µM | 4.53 µM |  | 3.84 µM | 6.81 µM | 6.46 µM
O=C1CC2OCC=C3CN4CCC56c7ccccc7N1C5C2C3CC46 (centres undefined) (tested in a mixture with another compound) | > 50 µg/mL | > 50 µg/mL | > 50 µg/mL | > 50 µg/mL |  | > 50 µg/mL | > 50 µg/mL | > 50 µg/mL | > 50 µg/mL | > 50 µg/mL | > 50 µg/mL | > 50 µg/mL | > 50 µg/mL | > 50 µg/mL | > 50 µg/mL | > 50 µg/mL |  | > 50 µg/mL | > 50 µg/mL | 3.44 µg/mL
Cc1ccc(SSCCCCS(=O)O)cc1 | 39.8 µM | 52.3 µM | 42.6 µM |  | 62.5 | 46.8 µM | 39.7 µM | 71 µM | 27.6 µM | > 100 µM |  |  |  |  |  |  |  |  |  | 
CCc1cccc(CC)c1NC(=O)C1=CNC(C)=C(C(=O)Nc2c(CC)cccc2CC)C1c1ccc(O)c(OC)c1 (centres undefined) | > 100 µM | 87.4 µM |  | 45.3 µM | 61 | > 100 µM | > 100 µM | > 100 µM | 77.4 µM | 99.5 µM |  |  |  |  |  |  |  |  |  | 
CCCNC(=O)Nc1ccc2c(c1)Cc1cc(N(CCCl)CCCl)ccc1-2 | 82.2 µM | 56.5 µM | > 100 µM | > 100 µM | > 100 | > 100 µM | 26.7 µM |  | 41 µM | > 100 µM |  |  |  |  |  |  |  |  |  | 
Nc1nc(N)c(-c2ccc(Cl)cc2)c(/C=C/c2ccc([N+](=O)[O-])cc2)n1 | > 100 µM | > 100 µM |  | > 100 µM | > 100 |  | > 100 µM | 56.4 µM | 41.9 µM | > 100 µM | 19.2 µM | 21.4 µM | 23.4 µM | 13.2 µM |  | 5.8 µM | 6.17 |  | 6.01 µM | 3.16 µM
COc1ccc2c(c1)O/C(=C\c1ccc([N+](=O)[O-])s1)C2=O |  |  |  | > 100 µM | > 100 | > 100 µM | > 100 µM | > 62.7 µM | 0.738 µM | 1.31 µM | > 22.7 µM |  |  | 0.241 µM |  | 1.69 µM | 0.478 | > 22.5 µM | 1.88 µM | 0.285 µM
O=C(OCc1ccccc1)c1ccccc1-c1c2ccc(=O)cc-2oc2cc(OCc3ccccc3)ccc12 | 55.3 µM | 31.3 µM | 24.6 µM | 57.7 µM | 36.8 |  | 42.8 µM |  |  | > 100 µM |  |  |  |  |  |  |  |  |  | 
